Patent US20130053406A1, “THERAPEUTIC COMPOUNDS AND USES THEREOF” (Myrexis, Inc., priority 2009, published 2013)

Legend:
purified human Hsp90 = experiment: Hsp90 binding assay (fluorescence polarization, displacement of BODIPY-geldanamycin); settings: displacement of BODIPY-GM (10 nM) from purified human Hsp90 (30 nM), overnight at room temperature
Description: Plates are incubated overnight at room temperature. Parallel and perpendicular fluorescence measurements are read (LJL BioSystems Analyst AD plate reader) at excitation/emission wavelengths of 485/530 nm. Background fluorescence (buffer only) is subtracted, and fluorescence polarization (FP) values, expressed in mP units, are calculated from parallel and perpendicular fluorescence readings as follows:
Percent inhibition is calculated by normalizing the FP values to those obtained in parallel reactions containing DMSO and subtracting these normalized values from 100%. Intrinsic compound fluorescence is independently monitored, and FP data points confounded by compound fluorescence are excluded from the analysis.

HCT116 cells = experiment: Cytotoxicity assay (ATPLite, 72 hours); type: cell-based; settings: Homo sapiens, HCT-116, ATPLite luminescence
Description: HCT116 cells are seeded into black 96-well plates at 5,000 cells per well in 100 microliters (DMEM supplemented with 10% serum) and are incubated overnight. […] Plates are equilibrated to room temperature (5 min). Fifty microliters lysis buffer followed by 50 microliters substrate solution (ATPLite [2 step], Perkin-Elmer, #601941) is added to each well, and plates are incubated at room temperature 5 minutes. Luminescence is then measured (TopCount, Perkin-Elmer).

| IC50 (purified human Hsp90) [nM] | SMILES | IC50 (HCT116 cells) [nM] |
| --- | --- | --- |
| 78 | [2H]C1([2H])Oc2cc(Br)c(Sc3nc4c(N)ncnc4n3CCC3CCN(C(=O)[C@H](C)OC(C)=O)CC3)cc2O1 [(2S)-1-[4-(2-{6-amino-8-[(6-bromo-2,2-d2-benzo[d][1,3]dioxol-5-yl)sulfanyl]-9H-purin-9-yl}ethyl)piperidin-1-yl]-1-oxopropan-2-yl acetate] | 730 |
| 250 | [2H]C1([2H])Oc2cc(Br)c(Sc3nc4c(N)ncnc4n3CCC3CCN(C(=O)[C@H](C)O)CC3)cc2O1 [(2S)-1-[4-(2-{6-amino-8-[(6-bromo-2,2-d2-benzo[d][1,3]dioxol-5-yl)sulfanyl]-9H-purin-9-yl}ethyl)piperidin-1-yl]-2-hydroxypropan-1-one] | 1200 |
